Assay results published in patent US5329010A, “Quinone derivatives” (Eisai Co., Ltd., priority 1991, dated 1994).

Key:
[1] = test system: production of thromboxane B2 (TxB2), rat abdominal glycogenic infiltration cell; test: Inhibitory activity against production of thromboxane B2 (TxB2) from rat abdominal infiltration cell; type: cell-based, rat (Fisher male); conditions: 10 min, cells 5×10^6/ml, calcium ionophore A-23187 2 μg/ml, 37° C., enzyme immunoassay
Method: (§1) Inhibitory activity against the production of leukotriene B4 (LTB4) and thromboxane B2 (TxB2 from rat abdominal infiltration cell
(§2) 10 ml of a 6% (w/v) solution of glycogen (Type II from Oyster, Sigma) in physiological saline was injected into the abdominal cavity of a Fisher male rat having a weight of 150 to 200 g. After 20 to 24 hours, the abdominal exudation cells were recovered therefrom, washed and suspended in the Hanks' balanced salt solution (HBSS) in a concentration of 5×10^6 /ml. This suspension was poured onto a 96-well culture plate (Costar: registered trademark) in which a test drug diluted to a predetermined concentration had been put in an amount of 10 μl/well, in an amount of 100 μl/well. The resulting plate was incubated at 37° C. for 5 minutes. Calcium ionophore A-23187 [Calbiochem (registered trademark)] was added in a final concentration of 2 μg/ml. After the reaction at 37° C. for additional 10 minutes, the plate was put on ice and a BW755C solution was added in a final concentration of 100 μM. The resulting plate was centrifuged at 15000 rpm for 10 minutes. The supernatant was recovered and the amounts of LTB4 and TxB2 in the supernatant were determined by enzyme immunoassay with an EIA kit mfd. by Cayman.
(Thromboxane A2 is very unstable to treat and naturally turns to thromboxane B2 in 10-20 seconds in the human body. Therefore, thromboxane B2 was used in the tests above).

[2] = test system: production of leukotriene B4 (LTB4), rat abdominal glycogenic infiltration cell; test: Inhibitory activity against production of leukotriene B4 (LTB4) from rat abdominal infiltration cell; type: cell-based, rat (Fisher male); conditions: 10 min, cells 5×10^6/ml, calcium ionophore A-23187 2 μg/ml, 37° C., enzyme immunoassay
Method: as §1, §2

[3] = Repetitive Oral Administration Test for 4 Weeks on Dogs; parameters: species or system dog (female beagle); conditions: in vivo, concluded after rat and dog tests, read-out: toxicologically non-influential dose
Method: Repetitive Oral Administration Test for 4 Weeks on Dogs
30 and 100 mg/kg of the compound obtained in the Example 3 was orally administered to female beagles aged 8 months (each group consisting of 2 animals) for 4 weeks. This compound was triturated with lactose and administered once a day.
During the administration period, the general conditions of the animals were observed and the body weight and feed intake were measured. After the completion of the first, seventh and final administrations, hemo-biochemical examination was effected. After the completion of the seventh and final administrations, further, hematological examination and urinalysis were effected. Furthermore, autopsy was effected and organs were weighed after the final administration. Livers, kidneys and adrenal bodies were patho-histologically examined under an optical microscope.

[4] = Repetitive Oral Administration Test for 4 Weeks on Rats; type: in vivo, rat (female Slc:SD); conditions: once a day, each of 30 and 100 mg/kg
Method: Repetitive Oral Administration Test for 4 Weeks on Rats
30 and 100 mg/kg of the compound obtained in the Example 3 was orally administered to female Slc:SD rats aged 7 weeks (each group consisting of 5 animals) for 4 weeks. This compound was suspended in a 0.5 wt. % aqueous solution of methylcellulose and administered once a day.
During the administration period, the general conditions of the animals were observed and the body weight and feed intake were measured. After the completion of the final administration, hematological examination, hemo-biochemical examination, urinalysis and autopsy were effected and organs were weighed. Further, livers and kidneys were patho-histologicallyexamined under an optical microscope.

Row | SMILES | IC50 [1] | IC50 [2] | NOAEL at 672 h [3] | change in general conditions, body weight, feed intake, hematology, hemo-biochemistry, urinalysis, autopsy, organ weight, histology [4]
1 | CCCCCCCOc1c(C)c(OC)c(/C=C(\CCCCCc2cccnc2)C(=O)OCC)c(C)c1OC [Ex. 5] | 480 nM | 3160 nM |  | 
2 | CCCCOc1c(C)c(OC)c(C)c(/C=C(\CCCCCc2cccnc2)C(=O)OCC)c1OC [Ex. 7] | 90 nM | 1390 nM |  | 
3 | COC1=C(C)C(=O)C(/C=C(\CCCCCc2cccnc2)C(=O)O)=C(C)C1=O [Ex. 3, (E)-3-(2-Methoxy-3,6-dimethyl-1,4-benzoquinon-5-yl)-2-[5-(3-pyridyl)pentyl]-2-propenoic acid] | 50 nM | 1160 nM | 100 mg/kg | No change was observed
4 | COc1c(C)c(O)c(/C=C(\CCCCCc2cccnc2)C(=O)O)c(C)c1O [Ex. 4, (E)-3-(2,5-Dihydroxy-4-methoxy-3,6-dimethylphenyl)-2-[5-(3-pyridyl)pentyl]-2-propenoic acid] | 460 nM | 7860 nM |  | 
5 | CCCCCCCOc1c(C)c(OC)c(C)c(/C=C(\CCCCCc2cccnc2)C(=O)OCC)c1OC [Ex. 9] | 160 nM | 3160 nM |  | 
6 | CCOC(=O)/C(=C/c1c(C)c(OC)c(OC)c(C)c1OC)CCCc1cccnc1 [Ex. 10] | 420 nM | 320 nM |  | 
